Source: PubChem BioAssay AID2060611 (Molecular Pharmacology Branch, DTP, NCI, 2025)
Several values for one entry are separate records, joined by “and”; a condition that tells them apart may be missing. Identical values can stand only once.

System: 628569-122-R-J1-PDC complex spheroid viability
Experiment: Anticancer human tumor 628569-122-R-J1-PDC patient-derived head and neck squamous carcinoma cell line growth inhibition [CLK]
Conditions: for viability, T/C: stronger effect = lower value
Method in brief: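 Multi-cell-type spheroids combined patient-derived tumor cells with HUVEC endothelial cells and human mesenchymal stem cells. Paired agents were dosed in half-log steps down from about clinical Cmax, or from 10 microM where Cmax was unknown.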
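Note: spheroids exposed to agents for seven days before readout.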
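Throughout, for viability, T/C: 100% = DMSO vehicle control viability.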

## CCCS(=O)(=O)Nc1ccc(F)c(C(=O)c2c[nH]c3ncc(-c4ccc(Cl)cc4)cc23)c1F
Compound 0.0316 µM
  viability, T/C: 107% and 87%
Compound 0.1 µM
  viability, T/C: 88.2% and 74.5%
Compound 0.316 µM
  viability, T/C: 94.3% and 70.7%
Compound 1 µM
  viability, T/C: 108% and 71.2%
Compound 3.16 µM
  viability, T/C: 104% and 77.5%
Compound 10 µM
  viability, T/C: 83.7% and 70.3%
Curve of compound
  IC50: > 10000 nM

## COC1C=CCC(C)C(C)S(=O)(=O)NC(=O)c2ccc3c(c2)N(CC2CCC21)CC1(CCCc2cc(Cl)ccc21)CO3 (stereo not drawn)
Compound 0.0316 µM
  viability, T/C: 101% and 91.8%
Compound 0.1 µM
  viability, T/C: 107% and 82.2%
Compound 0.316 µM
  viability, T/C: 73% and 64.9%
Compound 1 µM
  viability, T/C: 57.9% and 45.1%
Compound 3.16 µM
  viability, T/C: 42.4% and 42.2%
Compound 10 µM
  viability, T/C: 36.5% and 33.7%
Curve of compound
  IC50: 1490 nM and 826 nM

## CC1(C)CCC(CN2CCN(c3ccc(C(=O)NS(=O)(=O)c4ccc(NCC5CCOCC5)c([N+](=O)[O-])c4)c(Oc4cnc5[nH]ccc5c4)c3)CC2)=C(c2ccc(Cl)cc2)C1
Compound 0.0316 µM
  viability, T/C: 96.8% and 88.2%
Compound 0.1 µM
  viability, T/C: 97.5% and 99.5%
Compound 0.316 µM
  viability, T/C: 86.7% and 95.1%
Compound 1 µM
  viability, T/C: 101% and 91.4%
Compound 3.16 µM
  viability, T/C: 101% and 90.6%
Compound 10 µM
  viability, T/C: 80.5% and 73.1%
Curve of compound
  IC50: > 10000 nM

## C=CC(=O)Nc1cc(Nc2nccc(-c3cn(C)c4ccccc34)n2)c(OC)cc1N(C)CCN(C)C + CNC(=O)c1ccc(Nc2nc(OC3CCCC3)c3c(-c4ccc5nc(C)oc5c4)c[nH]c3n2)c(OC)c1
Curve of first compound, second compound 0.0316 µM
  IC50: > 300 nM
Curve of first compound, second compound 0.1 µM
  IC50: 26.9 nM
Curve of first compound, second compound 0.316 µM
  IC50: 17.9 nM
Curve of first compound, second compound 1 µM
  IC50: < 0.949 nM
Curve of first compound, second compound 3.16 µM
  IC50: < 0.949 nM
Curve of first compound, second compound 10 µM
  IC50: < 0.949 nM
Second compound 0.0316 µM, first compound 0.000949 µM
  viability, T/C: 81.8%
Second compound 0.0316 µM, first compound 0.003 µM
  viability, T/C: 98.1%
Second compound 0.0316 µM, first compound 0.00949 µM
  viability, T/C: 86.1%
Second compound 0.0316 µM, first compound 0.03 µM
  viability, T/C: 84.2%
Second compound 0.0316 µM, first compound 0.0949 µM
  viability, T/C: 68.1%
Second compound 0.0316 µM, first compound 0.3 µM
  viability, T/C: 53.7%
Second compound 0.1 µM, first compound 0.000949 µM
  viability, T/C: 63%
Second compound 0.1 µM, first compound 0.003 µM
  viability, T/C: 56.2%
Second compound 0.1 µM, first compound 0.00949 µM
  viability, T/C: 52.4%
Second compound 0.1 µM, first compound 0.03 µM
  viability, T/C: 49%
Second compound 0.1 µM, first compound 0.0949 µM
  viability, T/C: 49.6%
Second compound 0.1 µM, first compound 0.3 µM
  viability, T/C: 37.6%
Second compound 0.316 µM, first compound 0.000949 µM
  viability, T/C: 50.7%
Second compound 0.316 µM, first compound 0.003 µM
  viability, T/C: 55.7%
Second compound 0.316 µM, first compound 0.00949 µM
  viability, T/C: 49%
Second compound 0.316 µM, first compound 0.03 µM
  viability, T/C: 49.5%
Second compound 0.316 µM, first compound 0.0949 µM
  viability, T/C: 41.5%
Second compound 0.316 µM, first compound 0.3 µM
  viability, T/C: 23.9%
Second compound 1 µM, first compound 0.000949 µM
  viability, T/C: 49.1%
Second compound 1 µM, first compound 0.003 µM
  viability, T/C: 51.4%
Second compound 1 µM, first compound 0.00949 µM
  viability, T/C: 38.8%
Second compound 1 µM, first compound 0.03 µM
  viability, T/C: 42.1%
Second compound 1 µM, first compound 0.0949 µM
  viability, T/C: 36.6%
Second compound 1 µM, first compound 0.3 µM
  viability, T/C: 18.9%
Second compound 3.16 µM, first compound 0.000949 µM
  viability, T/C: 43.1%
Second compound 3.16 µM, first compound 0.003 µM
  viability, T/C: 48.9%
Second compound 3.16 µM, first compound 0.00949 µM
  viability, T/C: 39.3%
Second compound 3.16 µM, first compound 0.03 µM
  viability, T/C: 44.2%
Second compound 3.16 µM, first compound 0.0949 µM
  viability, T/C: 23.7%
Second compound 3.16 µM, first compound 0.3 µM
  viability, T/C: 13.7%
Second compound 10 µM, first compound 0.000949 µM
  viability, T/C: 46.5%
Second compound 10 µM, first compound 0.003 µM
  viability, T/C: 40.6%
Second compound 10 µM, first compound 0.00949 µM
  viability, T/C: 46.8%
Second compound 10 µM, first compound 0.03 µM
  viability, T/C: 45%
Second compound 10 µM, first compound 0.0949 µM
  viability, T/C: 25.8%
Second compound 10 µM, first compound 0.3 µM
  viability, T/C: 12%
